In US20020137929A1, “1 - (3-heterocyclylphenyl) isothiourea, -isourea, -guanidine and -amidine herbicidal agents” (Intellectual Property Department, BASF Aktiengesellschaft, priority 1998, published 2002):

Experiments:
CASOB (Sicklepod) = experiment: Postemergence herbicidal evaluation; format: in vivo, Cassia obtusifolia; conditions: postemergence
Summary of the method: (§1)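 Two-week seedlings sprayed postemergence at 40 psi; formulation: 1:1 acetone/water, 0.5% TWEEN 20; application ≈0.0156–0.500 kg/ha. Greenhouse grow-out, then 0–9 visual scoring at 4–5 weeks.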

[1] = test system: TRZAWR (Wheat, Winter, cv Riband); experiment: Postemergence herbicidal evaluation; format: in vivo, Triticum aestivum; conditions: postemergence
Summary of the method: as §1

ZEAMX (Corn, Field) [2] = experiment: Postemergence herbicidal evaluation; format: in vivo, Zea mays; conditions: postemergence
Summary of the method: as §1

AMBEL (Ragweed, Common) = experiment: Preemergence herbicidal evaluation; format: in vivo, Ambrosia artemisifolia; conditions: rated 4-5 weeks after treatment
Summary of the method: (§2)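 Steps: mix seeds into potting soil; plant atop ~1 inch soil; spray compound in aqueous acetone (~0.0156-0.500 kg/ha equivalent); maintain in greenhouse with watering; rate visually 0-9 versus control at 4-5 weeks.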

[3] = test system: CHEAL (Lambsquarters, Common); experiment: Preemergence herbicidal evaluation; format: in vivo, Chenopodium album; conditions: rated 4-5 weeks after treatment
Summary of the method: as §2

GALAP (Galium) = experiment: Preemergence herbicidal evaluation; format: in vivo, Galium aparine; conditions: rated 4-5 weeks after treatment
Summary of the method: as §2

[4] = test system: IPOHE (Morningglory, Ivyleaf); experiment: Preemergence herbicidal evaluation; format: in vivo, Ipomoea hederacea; conditions: rated 4-5 weeks after treatment
Summary of the method: as §2

ECHCG (Barnyardgrass) = experiment: Preemergence herbicidal evaluation; format: in vivo, Echinochloa crus-galli; conditions: rated 4-5 weeks after treatment
Summary of the method: as §2

SETVI (Foxtail, Green) = experiment: Preemergence herbicidal evaluation; format: in vivo, Setaria viridis; conditions: rated 4-5 weeks after treatment
Summary of the method: as §2

ZEAMX (Corn, Field) [5] = experiment: Preemergence herbicidal evaluation; format: in vivo, Zea mays; conditions: rated 4-5 weeks after treatment
Summary of the method: as §2

[6] = test system: ECHORC (Watergrass (Calif.)); experiment: Preemergence weed control under flooded paddy conditions; format: in vivo, Echinochloa oryzoides; conditions: rated 3-4 weeks after treatment
Summary of the method: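 Herbicidal effect is scored visually on a 0-9 scale against an untreated control, three to four weeks after compounds are pipetted into the flood water (1.5 to 3 cm deep) over seeds planted in silt loam at 0.5 cm depth. Rates: about 0.0313 to 0.500 kg/ha.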

CYPSE (Flatsedge) = experiment: as above; format: in vivo, Cyperus serotinus; conditions: rated 3-4 weeks after treatment
Summary of the method: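 First, seeds or propagules go into the top 0.5 cm of silt loam; next, water is held 1.5 to 3 cm over the soil; then compound (50/50 acetone/water) is pipetted into it at about 0.0313 to 0.500 kg/ha; finally plants are rated visually 0-9 after three to four weeks.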

CCOC(=O)CN1C(=O)C(CC(=O)NS(=O)(=O)C(C)C)SC1=Nc1cc(-n2c(=O)cc(C(F)(F)F)n(C)c2=O)c(F)cc1Cl (stereo not drawn) [Compound 117, Ethyl 2-{{2-chloro-5-[3,6-dihydro-3-methyl-2,6-dioxo-4-(trifluoromethyl)-1(2H)-pyrimidinyl]-4-fluorophenyl}imino}-5-{[(isopropylsulfonyl)-carbamoyl]methyl}-4-oxo-3-thiazolidineacetate]
5.0: herbicidal rating ZEAMX (ZEAMX (Corn, Field) [2]; rate 0.0315 kg/ha) | herbicidal rating ZEAMX (ZEAMX (Corn, Field) [2]; rate 0.0630 kg/ha)
4.5: herbicidal rating ZEAMX (ZEAMX (Corn, Field) [2]; rate 0.0158 kg/ha)
1.0: herbicidal rating CASOB (CASOB (Sicklepod); rate 0.0315 kg/ha) | herbicidal rating CASOB (CASOB (Sicklepod); rate 0.0630 kg/ha) | Preemergence herbicidal rating SETVI (SETVI (Foxtail, Green); rate 0.0156 kg/ha) | Preemergence herbicidal rating SETVI (SETVI (Foxtail, Green); rate 0.0625 kg/ha) | Preemergence herbicidal rating ZEAMX (ZEAMX (Corn, Field) [5]; rate 0.1250 kg/ha)
3.5: herbicidal rating TRZAWR ([1]; rate 0.0315 kg/ha) | herbicidal rating TRZAWR ([1]; rate 0.0630 kg/ha)
7.0: Preemergence herbicidal rating AMBEL (AMBEL (Ragweed, Common); rate 0.2500 kg/ha) | Preemergence herbicidal rating GALAP (GALAP (Galium); rate 0.2500 kg/ha) | herbicidal effect rating, CYPSE (CYPSE (Flatsedge); 0.0625 kg/ha)
0.0: herbicidal rating CASOB (CASOB (Sicklepod); rate 0.0158 kg/ha) | Preemergence herbicidal rating AMBEL (AMBEL (Ragweed, Common); rate 0.0156 kg/ha) | Preemergence herbicidal rating AMBEL (AMBEL (Ragweed, Common); rate 0.0313 kg/ha) | Preemergence herbicidal rating AMBEL (AMBEL (Ragweed, Common); rate 0.0625 kg/ha) | Preemergence herbicidal rating AMBEL (AMBEL (Ragweed, Common); rate 0.1250 kg/ha) | Preemergence herbicidal rating GALAP (GALAP (Galium); rate 0.0156 kg/ha) | Preemergence herbicidal rating GALAP (GALAP (Galium); rate 0.0313 kg/ha) | Preemergence herbicidal rating GALAP (GALAP (Galium); rate 0.0625 kg/ha) | Preemergence herbicidal rating IPOHE ([4]; rate 0.0156 kg/ha) | Preemergence herbicidal rating IPOHE ([4]; rate 0.0313 kg/ha) | Preemergence herbicidal rating IPOHE ([4]; rate 0.0625 kg/ha) | Preemergence herbicidal rating IPOHE ([4]; rate 0.1250 kg/ha) | Preemergence herbicidal rating ECHCG (ECHCG (Barnyardgrass); rate 0.0156 kg/ha) | Preemergence herbicidal rating ECHCG (ECHCG (Barnyardgrass); rate 0.0313 kg/ha) | Preemergence herbicidal rating ECHCG (ECHCG (Barnyardgrass); rate 0.0625 kg/ha) | Preemergence herbicidal rating ECHCG (ECHCG (Barnyardgrass); rate 0.1250 kg/ha) | Preemergence herbicidal rating ECHCG (ECHCG (Barnyardgrass); rate 0.2500 kg/ha) | Preemergence herbicidal rating SETVI (SETVI (Foxtail, Green); rate 0.0313 kg/ha) | Preemergence herbicidal rating SETVI (SETVI (Foxtail, Green); rate 0.1250 kg/ha) | Preemergence herbicidal rating SETVI (SETVI (Foxtail, Green); rate 0.2500 kg/ha) | Preemergence herbicidal rating ZEAMX (ZEAMX (Corn, Field) [5]; rate 0.0156 kg/ha) | Preemergence herbicidal rating ZEAMX (ZEAMX (Corn, Field) [5]; rate 0.0313 kg/ha) | Preemergence herbicidal rating ZEAMX (ZEAMX (Corn, Field) [5]; rate 0.0625 kg/ha) | Preemergence herbicidal rating ZEAMX (ZEAMX (Corn, Field) [5]; rate 0.2500 kg/ha) | herbicidal effect rating, ECHORC ([6]; 0.0313 kg/ha) | herbicidal effect rating, ECHORC ([6]; 0.0625 kg/ha) | herbicidal effect rating, ECHORC ([6]; 0.1250 kg/ha) | herbicidal effect rating, ECHORC ([6]; 0.2500 kg/ha)
6.0: Preemergence herbicidal rating CHEAL ([3]; rate 0.1250 kg/ha)
9.0: Preemergence herbicidal rating CHEAL ([3]; rate 0.0156 kg/ha) | Preemergence herbicidal rating CHEAL ([3]; rate 0.0313 kg/ha) | Preemergence herbicidal rating CHEAL ([3]; rate 0.0625 kg/ha) | Preemergence herbicidal rating CHEAL ([3]; rate 0.2500 kg/ha) | Preemergence herbicidal rating IPOHE ([4]; rate 0.2500 kg/ha) | herbicidal effect rating, CYPSE (CYPSE (Flatsedge); 0.1250 kg/ha) | herbicidal effect rating, CYPSE (CYPSE (Flatsedge); 0.2500 kg/ha)
3.0: herbicidal rating TRZAWR ([1]; rate 0.0158 kg/ha) | Preemergence herbicidal rating GALAP (GALAP (Galium); rate 0.1250 kg/ha)
